From patent US20240390508A1, “HUMAN TRANSFERRIN RECEPTOR BINDING PEPTIDE-DRUG CONJUGATE” (priority 2021, published 2024)

Molecular target: transferrin receptor (hTfR) (Homo sapiens, UniProt P02786)
Experiment: Intermolecular interaction evaluation test between transferrin receptor (hTfR) and peptide-nucleic acid conjugate using surface plasmon resonance (SPR)
Type: binding
Protocol: Intermolecular interaction evaluation test between transferrin receptor (hTfR) and peptide using surface plasmon resonance (SPR)
The various synthesized peptide-nucleic acid conjugates were tested for intermolecular interaction by surface plasmon resonance (SPR) of the peptide-nucleic acid conjugate with transferrin receptor (hTfR) using the method shown below. The specific test method is shown below.
NTA sensor chip (Global Life Science Technologies Japan Co., Ltd.) was inserted into Biacore T200 (Global Life Science Technologies Japan Co., Ltd.), prime operation was performed three times with running buffer: 10 mM HEPES pH 8.0 (Nacalai Tesque Co., Ltd.), 150 mM NaCl (Nacalai Tesque Co., Ltd.), 0.05% Tween 20 (Nacalai Tesque Co., Ltd.), 0.1% BSA (SIGMA-ALDRICH), and 1.0% DMSO (FUJIFILM Wako Pure Chemical Corporation), and equilibrated at a flow rate of 30 μL/min. 350 mM EDTA solution was reacted for 60 seconds at a flow rate of 10 μL/min, 0.5 mM NiCl2 solution (Kishida Chemical) was reacted for 60 seconds at a flow rate of 10 μL/min, and the NTA sensor chip was washed with 3 mM EDTA solution (Nacalai Tesque Co., Ltd.) for 60 seconds at a flow rate of 10 μL/min. After mixing 50 μL each of […] EDC solution (Global Life Science Technologies Japan Co., Ltd.) and […] NHS solution (Global Life Science Technologies Japan Co., Ltd.), the mixture was reacted for 420 seconds at a flow rate of 10 μL/min. 150 μL of a 0.5 μM hTfR solution was prepared by diluting with a running buffer and reacted for 300 seconds at a flow rate of 10 μL/min to immobilize hTfR on the NTA sensor chip. After immobilization, capping was performed by reacting with a 1.0 M ethanolamine aqueous solution (Global Life Science Technologies Japan Co., Ltd.) at a flow rate of 10 μL/min for 420 seconds. A peptide-nucleic acid conjugate solution adjusted to 10 mM in DMSO solution was diluted with running buffer to a final concentration of 10 μM peptide-nucleic acid conjugate solution, and 100 nM, 50 nM, 25 nM, 10 nM, 5 nM peptide-nucleic acid conjugate solutions were prepared. Using the aforementioned samples, the kinetics of the peptide against hTfR was obtained by SPR measurement.
The kinetics evaluation model was Single Cycle Kinetics, and curve fitting was performed using Biacore T200 Evaluation Software Version 3.0 (Global Life Science Technologies Japan Co., Ltd.). The obtained sensorgram was subjected to curve fitting using the least squares method, and the binding of the peptide-nucleic acid conjugate to hTfR was evaluated by determining the KD value.

Chain of transferrin receptor (hTfR) (P02786 whole entry): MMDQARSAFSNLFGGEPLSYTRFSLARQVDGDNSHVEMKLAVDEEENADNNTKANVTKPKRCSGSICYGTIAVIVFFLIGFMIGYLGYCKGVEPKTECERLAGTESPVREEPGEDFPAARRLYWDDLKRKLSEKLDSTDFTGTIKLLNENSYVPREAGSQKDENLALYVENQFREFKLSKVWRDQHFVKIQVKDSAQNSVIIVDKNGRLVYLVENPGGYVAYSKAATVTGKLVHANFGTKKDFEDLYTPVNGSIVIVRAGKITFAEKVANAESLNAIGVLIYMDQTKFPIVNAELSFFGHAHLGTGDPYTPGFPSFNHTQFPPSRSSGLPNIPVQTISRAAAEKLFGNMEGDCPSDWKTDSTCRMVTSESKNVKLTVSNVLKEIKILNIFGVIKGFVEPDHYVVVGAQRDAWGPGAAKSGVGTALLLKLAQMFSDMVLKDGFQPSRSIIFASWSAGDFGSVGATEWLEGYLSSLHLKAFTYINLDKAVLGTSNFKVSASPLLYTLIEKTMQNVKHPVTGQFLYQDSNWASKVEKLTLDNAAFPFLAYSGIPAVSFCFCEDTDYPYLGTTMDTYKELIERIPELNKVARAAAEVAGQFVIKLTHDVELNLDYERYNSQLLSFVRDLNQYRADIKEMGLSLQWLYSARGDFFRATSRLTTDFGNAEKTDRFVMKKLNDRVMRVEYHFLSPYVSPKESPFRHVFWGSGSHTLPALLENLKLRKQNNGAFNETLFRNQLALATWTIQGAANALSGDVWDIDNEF

## CC[C@H](C)[C@@H]1NC(=O)[C@H](Cc2ccc(O)cc2)NC(=O)[C@H](Cc2ccc(O)cc2)NC(=O)[C@H](CC(N)=O)NC(=O)[C@H](Cc2c[nH]c3ccccc23)NC(=O)[C@H](C(C)C)NC(=O)[C@H](Cc2ccccc2)N(C)C(=O)[C@H](C(C)C)NC(=O)[C@H](C)NC(=O)CSC[C@@H](C(=O)NCC(=O)N[C@@H](CCCCn2nnc3c2CCC2C(CC3)C2COC(=O)NCCOCCOCC(=O)N[C@@H](CCCNC(=N)N)C(=O)N[C@@H](CCCNC(=N)N)C(=O)N[C@@H](CCCNC(=N)N)C(=O)NCCC(=O)N2C[C@@H](COP(=O)(N(C)C)N3C[C@@H](COP(=O)(N(C)C)N4C[C@@H](COP(=O)(N(C)C)N5C[C@@H](COP(=O)(N(C)C)N6C[C@@H](COP(=O)(N(C)C)N7C[C@@H](COP(=O)(N(C)C)N8C[C@@H](COP(=O)(N(C)C)N9C[C@@H](COP(=O)(N(C)C)N%10C[C@@H](COP(=O)(N(C)C)N%11C[C@@H](COP(=O)(N(C)C)N%12C[C@@H](COP(=O)(N(C)C)N%13C[C@@H](COP(=O)(N(C)C)N%14C[C@@H](COP(=O)(N(C)C)N%15C[C@@H](COP(=O)(N(C)C)N%16C[C@@H](COP(=O)(N(C)C)N%17C[C@@H](COP(=O)(N(C)C)N%18C[C@@H](COP(=O)(N(C)C)N%19C[C@@H](COP(=O)(N(C)C)N%20C[C@@H](COP(=O)(N(C)C)N%21C[C@@H](COP(=O)(N(C)C)N%22C[C@@H](COP(=O)(N(C)C)N%23C[C@@H](COP(=O)(N(C)C)N%24C[C@@H](COP(=O)(N(C)C)N%25C[C@@H](COP(=O)(N(C)C)N%26C[C@@H](COP(=O)(N(C)C)N(C)CC(N)=O)O[C@@H](n%27cnc%28c(=O)[nH]c(N)nc%28%27)C%26)O[C@@H](n%26cc(C)c(=O)[nH]c%26=O)C%25)O[C@@H](n%25cc(C)c(=O)[nH]c%25=O)C%24)O[C@@H](n%24cnc%25c(=O)[nH]c(N)nc%25%24)C%23)O[C@@H](n%23ccc(N)nc%23=O)C%22)O[C@@H](n%22ccc(N)nc%22=O)C%21)O[C@@H](n%21cc(C)c(=O)[nH]c%21=O)C%20)O[C@@H](n%20ccc(N)nc%20=O)C%19)O[C@@H](n%19ccc(N)nc%19=O)C%18)O[C@@H](n%18cnc%19c(=O)[nH]c(N)nc%19%18)C%17)O[C@@H](n%17cnc%18c(=O)[nH]c(N)nc%18%17)C%16)O[C@@H](n%16cc(C)c(=O)[nH]c%16=O)C%15)O[C@@H](n%15cc(C)c(=O)[nH]c%15=O)C%14)O[C@@H](n%14ccc(N)nc%14=O)C%13)O[C@@H](n%13cc(C)c(=O)[nH]c%13=O)C%12)O[C@@H](n%12cnc%13c(=O)[nH]c(N)nc%13%12)C%11)O[C@@H](n%11cnc%12c(N)ncnc%12%11)C%10)O[C@@H](n%10cnc%11c(N)ncnc%11%10)C9)O[C@@H](n9cnc%10c(=O)[nH]c(N)nc%109)C8)O[C@@H](n8cnc9c(=O)[nH]c(N)nc98)C7)O[C@@H](n7cc(C)c(=O)[nH]c7=O)C6)O[C@@H](n6cnc7c(=O)[nH]c(N)nc76)C5)O[C@@H](n5cc(C)c(=O)[nH]c5=O)C4)O[C@@H](n4cc(C)c(=O)[nH]c4=O)C3)O[C@@H](n3ccc(N)nc3=O)C2)C(N)=O)NC(=O)[C@H](Cc2ccc(O)cc2)N(C)C(=O)[C@H](Cc2ccc(O)cc2)NC(=O)[C@H](CCCNC(=N)N)NC(=O)[C@H](CCCNC(=N)N)NC(=O)[C@H]([C@@H](C)CC)NC1=O (stereo partly shown) [Example 57]
  Kd: < 100 nM
